Values after ≈ are worked out from the molar mass of the structure shown. Where two headings read alike, the source gives them in different places. One block for each compound: values may come before it.
Columns and labels:
[1] = pH solubility studies in buffers and biorelevant media (Example 16); format: physicochemical; conditions: for solubility at 24 h: thermodynamic from solid
Method: Example 16—pH Solubility Studies—(1) Crystalline Form 2 Compound 1 di(hydrogen sulfate) trihydrate, (2) Crystalline Form 3 Compound 1 di(hydrogen sulfate), and (3) Crystalline Form 4 Compound 1 mono(hydrogen sulfate): pH solubility studies were carried out on the prepared crystalline Form 2 Compound 1 di(hydrogen sulfate) trihydrate, crystalline Form 3 Compound 1 di(hydrogen sulfate) and crystalline Form 4 Compound 1 mono(hydrogen sulfate) in the following media: (1) HCl/KCl, pH 1.2; (2) Acetate, pH 4.5; (3) Phosphate, pH 6.8; (4) FaSSIF; (5) FeSSIF; and (6) FaSSGF. Slurries of the hydrogen sulfate forms were prepared in the appropriate medium and stirred at 25° C. For the experiments in the buffer media, the pH of the slurry samples was measured and adjusted as required after 1 hour and 23 hours of the slurrying. Additional solid was added where dissolution was observed post-adjustment. The pH of the samples in the biorelevant media was measured at the 23 hour timepoint. No pH adjustment was made for the biorelevant media. After a total of 24 hours of slurrying, the mother liquors were extracted via centrifugation, and the concentrations and solution purity were determined by HPLC. The residual solids were isolated and analyzed by XRPD and are shown in FIG. 77, FIG. 78, and FIG. 79. The assessment was repeated for some of the samples, where required.

[2] = TG/DSC and DSC thermal analysis; format: physicochemical; conditions: for TGA/DSC thermal event, onset: value before the brackets; for TGA/DSC thermal event, peak: value in brackets
Method: (§1) In the examples below, to measure TGA/DSC, 2-10 mg of material was added into a pre-tared open aluminum pan and loaded into a TA Instruments Discovery SDT 650 Auto—Simultaneous DSC and held at room temperature. The sample was then heated at a rate of 10° C./min from 30° C. to 400° C. during which time the change in sample weight was recorded along with the heat flow response (DSC). Nitrogen was used as the sample purge gas, at a flow rate of 200 cm^3/min.
(§2) METHOD A: In Example 3, 1-5 mg of material was weighed into an aluminum DSC pan and sealed non-hermetically with a pierced aluminum lid. The sample pan was then loaded into a TA DSC2500 and held at 20° C. Once a stable heat-flow response was obtained, the sample and reference were heated to an upper temperature of 200° C. at a scan rate of 10° C./min and the resulting heat flow response monitored. The sample was held at the upper temperature for 3 minutes, before it was cooled at 10° C./min to 20° C., reheated to the upper temperature at 10° C./min, and then cooled again to 20° C. at the same rate. Nitrogen was used as the purge gas, at a flow rate of 50 cm^3/min.
as §2, with “B:” for “A:”, “Examples 2A, 14, and 17,” for “Example 3,”, “−80° C. and then” for “20° C.,”, “C./min.” for “C./min, and then cooled again to 20° C. at the same rate.”
METHOD C: In Example 5, 1-5 mg of a sample were weighed into an aluminum DSC pan and sealed non-hermetically with an aluminum lid. The sample pan was then loaded into a TA Instruments Discovery DSC 2500 differential scanning calorimeter equipped with a RC90 cooler. The sample and reference were heated to 190° C. at a scan rate of 10° C./min and the resulting heat flow response monitored. The sample was re-cooled to −80° C. and then reheated again to 190° C. all at 10° C./min. Nitrogen was used as the purge gas, at a flow rate of 50 cm^3/min.
as §1, with “2-10” for “In the examples below, to measure TGA/DSC, 2-10”, “Auto-Simultaneous” for “Auto—Simultaneous”
as §2, with “1-5” for “METHOD A: In Example 3, 1-5”, “min,” for “minutes,”

[3] = FaSSGF, 25° C., 24 h, pH after 24 h 1.98
[4] = FaSSIF, 25° C., 24 h, pH after 24 h 3.93
[5] = FeSSIF, 25° C., 24 h, pH after 24 h 4.34
[6] = after 24 hours slurrying in the media (Form 2: all samples except pH 4.5 Attempt 1)
[7] = pH 1.2 (HCl/KCl), 25° C., 24 h, pH after 24 h 1.57→1.33
[8] = pH 4.5 (Acetate), 25° C., 24 h, pH after 24 h 4.43
[9] = pH 6.8 (Phosphate), 25° C., 24 h, pH after 24 h 5.19→6.94
[10] = listed as Crystalline Form 4 Compound 1 mono(hydrogen sulfate)
[11] = FaSSGF, 25° C., 24 h, pH after 24 h 0.87
[12] = FaSSIF, 25° C., 24 h, pH after 24 h 1.10
[13] = FeSSIF, 25° C., 24 h, pH after 24 h 1.01, Cloudy
[14] = pH 1.2 (HCl/KCl), attempt 1, 25° C., 24 h, pH after 24 h 1.13
[15] = pH 4.5 (Acetate), attempt 1, 25° C., 24 h, pH after 24 h 4.76→4.58
[16] = pH 4.5 (Acetate), attempt 2, 25° C., 24 h, pH after 24 h 4.88→4.56
[17] = pH 6.8 (Phosphate), attempt 1, 25° C., 24 h, pH after 24 h 5.57→6.70
[18] = pH 6.8 (Phosphate), attempt 2, 25° C., 24 h, pH after 24 h 1.57→6.71

Compound: COc1cc(C(=O)O[C@@H]2CCCOc3cc(cc(OC)c3OC)C(=O)NCCCN3CCCN(CC2)CC3)cc(OC)c1OC.O=S(=O)(O)O
- ML purity [1, 3]: 99.82 % area
- Solub. [1, 3]: 36.7 mg/mL
- ML purity [1, 4]: 99.86 % area
- Solub. [1, 4]: 44.9 mg/mL
- ML purity [1, 5]: 99.69 % area
- Solub. [1, 5]: 124.2 mg/mL
- solution purity of the extracted mother liquors [1, 6]: > 98 % area
- pH solubility ([1]; pH 1.2): pH 1.2: 134 mg/mL
- pH solubility: residual solid ([1]; pH 1.2): mg/mL, Form 4
- ML purity [1, 7]: >99.99 % area
- Solub. [1, 7]: 134.1 mg/mL
- solubility ([1]; pH 1.2 and FeSSIF media, 25° C., 24 hours): > 100 mg/mL
- pH solubility ([1]; pH 4.5): pH 4.5: 47 mg/mL
- pH solubility: residual solid ([1]; pH 4.5): mg/mL, Form 4
- ML purity [1, 8]: 99.86 % area
- Solub. [1, 8]: 46.9 mg/mL
- pH solubility ([1]; pH 6.8): pH 6.8: 62 mg/mL
- pH solubility: residual solid ([1]; pH 6.8): mg/mL, Gum
- ML purity [1, 9]: 98.30 % area
- Solub. [1, 9]: 62.0 mg/mL
- solubility ([1]; the other media assessed, 25° C., 24 hours): 30 to 80 mg/mL
- DSC (onset/peak): onset [2]: 113 °C
- DSC (onset/peak): peak [2]: 119 °C
- TGA/DSC mass loss [2, 10]: 15.5% mass loss
- TGA/DSC thermal event, onset [2, 10]: 148 °C
- TGA/DSC thermal event, peak [2, 10]: 160 °C

Compound: COc1cc(C(=O)O[C@@H]2CCCOc3cc(cc(OC)c3OC)C(=O)NCCCN3CCCN(CC2)CC3)cc(OC)c1OC.O=S(=O)(O)O.O=S(=O)(O)O [crystalline Form 3 Compound 1 di(hydrogen sulfate)]
- ML purity [1, 11]: 99.51 % area
- Solub. [1, 11]: 72.0 mg/mL
- ML purity [1, 12]: 99.76 % area
- Solub. [1, 12]: 77.1 mg/mL
- ML purity [1, 13]: 99.90 % area
- Solub. [1, 13]: ≥208.3 mg/mL
- solution purity of the extracted mother liquors [1, 6]: > 95 % area
- solubility ([1]; all the media assessed, except the pH 4.5 media, 25° C., 24 hours): > 50 mg/mL
- pH solubility ([1]; pH 1.2): pH 1.2: 76 mg/mL
- pH solubility: residual solid ([1]; pH 1.2): mg/mL, Form 2
- ML purity [1, 14]: 99.56 % area
- Solub. [1, 14]: 75.7 mg/mL
- pH solubility ([1]; pH 4.5): pH 4.5: 54 mg/mL
- pH solubility: residual solid ([1]; pH 4.5): mg/mL, Form 4
- ML purity [1, 15]: 99.59 % area
- Solub. [1, 15]: 54.2 mg/mL
- ML purity [1, 16]: 95.53 % area
- Solub. [1, 16]: 20.0 mg/mL
- solubility ([1]; pH 4.5 media, Attempt 2, 25° C., 24 hours): 20 mg/mL
- pH solubility ([1]; pH 6.8): pH 6.8: 150 mg/mL
- pH solubility: residual solid ([1]; pH 6.8): mg/mL, Gum
- ML purity [1, 17]: 99.87 % area
- Solub. [1, 17]: 122.5 mg/mL
- ML purity [1, 18]: 99.16 % area
- Solub. [1, 18]: 152.8 mg/mL
- TGA/DSC mass loss [2]: 3.1% mass loss
- TGA/DSC thermal event, onset [2]: 163 °C
- TGA/DSC thermal event, peak [2]: 177 °C

- ML purity ([1]; FaSSGF, 25° C., 24 h, pH after 24 h 0.93): 99.67 % area
- solubility at 24 h ([1]; FaSSGF, 25 °C, pH 0.93, fassgf or other biorelevant, FaSSGF, 25° C., 24 h, pH after 24 h 0.93, read-out: Solub.): 81.1 mg/mL (≈ 128 mM)
- ML purity ([1]; FaSSIF, 25° C., 24 h, pH after 24 h 1.12): 99.80 % area
- solubility at 24 h ([1]; FaSSIF, 25 °C, pH 1.12, fassif, FaSSIF, 25° C., 24 h, pH after 24 h 1.12, read-out: Solub.): 76.6 mg/mL (≈ 121 mM)
- ML purity ([1]; FeSSIF, 25° C., 24 h, pH after 24 h 1.07): 99.72 % area
- solubility at 24 h ([1]; FeSSIF, 25 °C, pH 1.07, fessif, FeSSIF, 25° C., 24 h, pH after 24 h 1.07, read-out: Solub.): 133 mg/mL (≈ 211 mM)
- solubility at 24 h ([1]; HCl/KCl buffer, 25 °C, pH 1.2, simulated gastric fluid, pH 1.2 (HCl/KCl), attempt 1, 25° C., 24 h, pH after 24 h 0.98→1.22, read-out: Solub.): > 86.7 mg/mL
- solubility at 24 h ([1]; acetate buffer pH 4.5, 25 °C, pH 4.5, aqueous buffer, pH 4.5 buffer media, Attempt 1, 25° C., 24 hours, read-out: solubility): < 20 mg/mL
- solubility at 24 h ([1]; acetate buffer, 25 °C, pH 4.5, aqueous buffer, pH 4.5 (Acetate), attempt 1, 25° C., 24 h, pH after 24 h 4.53, read-out: Solub.): 17.8 mg/mL (≈ 28.2 mM)
- solubility at 24 h ([1]; acetate buffer, 25 °C, pH 4.5, aqueous buffer, pH 4.5 (Acetate), attempt 2, 25° C., 24 h, pH after 24 h 1.68→4.62, read-out: Solub.): 94.5 mg/mL (≈ 150 mM)
- solution purity of the extracted mother liquors [1, 6]: > 99 % area
- solubility at 24 h ([1]; buffers and biorelevant media, 25 °C, pH 1.2, aqueous buffer, pH 1.2 and 4.5 buffers and all the biorelevant media, slurry 25° C., 24 hours, read-out: solubility): > 75 mg/mL
- pH solubility ([1]; pH 1.2): pH 1.2: >87 mg/mL
- pH solubility: residual solid ([1]; pH 1.2): mg/mL, no solid
- ML purity ([1]; pH 1.2 (HCl/KCl), attempt 1, 25° C., 24 h, pH after 24 h 0.98→1.22): 99.13 % area
- pH solubility ([1]; pH 4.5): pH 4.5: 95 mg/mL
- pH solubility: residual solid ([1]; pH 4.5): mg/mL, Form 4
- ML purity ([1]; pH 4.5 (Acetate), attempt 1, 25° C., 24 h, pH after 24 h 4.53): 89.50 % area
- ML purity ([1]; pH 4.5 (Acetate), attempt 2, 25° C., 24 h, pH after 24 h 1.68→4.62): 99.76 % area
- solution purity of the extracted mother liquors ([1]; pH 4.5 Attempt 1): 89 % area
- pH solubility ([1]; pH 6.8): pH 6.8: 12 mg/mL
- pH solubility: residual solid ([1]; pH 6.8): mg/mL, Gum
- ML purity ([1]; pH 6.8 (Phosphate), attempt 1, 25° C., 24 h, pH after 24 h 1.01→6.87): 99.43 % area
- solubility at 24 h ([1]; phosphate buffer, 25 °C, pH 6.8, aqueous buffer, pH 6.8 (Phosphate), attempt 1, 25° C., 24 h, pH after 24 h 1.01→6.87, read-out: Solub.): 12 mg/mL (≈ 19 mM)
- solubility at 24 h ([1]; phosphate buffer, 25 °C, pH 6.8, aqueous buffer, pH 6.8 (Phosphate), attempt 2, 25° C., 24 h, pH after 24 h 4.79→6.90, read-out: Solub.): 6.1 mg/mL (≈ 9.66 mM)
- DSC (onset/peak): onset [2]: 144 °C
- DSC (onset/peak): peak [2]: 158 °C
- TGA/DSC mass loss [2]: 7.3% mass loss
- TGA/DSC thermal event, onset [2]: 130 °C
- TGA/DSC thermal event, peak [2]: 149 °C
Compound: CCCN1CCNCCCNC(=O)c2cc(OC)c(OC)c(c2)OCCC[C@@H](OC(=O)c2cc(OC)c(OC)c(OC)c2)CC1
